From patent US4578382A, “4-acylamino-1-azaadamantanes, and compositions for use thereof in medicine” (Etablissements Nativelle S.A., priority 1981, dated 1986)
Where two headings read alike, the source gives them in different places.

Columns and labels:
[1] = system: ventricular arrhythmias with adrenalin; assay: Test with adrenalin after experimental infarct; assay type: in vivo, dog
Excerpt: (§1) Narcisse et al, Ann. Pharma. Fr., 37, 325-330 (1979), in the rat by the aconitine intoxication test of S. Witchitz et al, Coeur Med. Int., X(2), 281-286, (1971) and in the dog by the Harris test described in Circulation, 1, 1318, (1950) and by the test with adrenalin after experimental infarct of I. J. Steffe et al, J. Pharmacol. Exp. Ther., 214, 50-57 (1980).
2 to 5 days after an experimental infarct, the effects of discontinuous injections (in intravenous bolus of […] of basic adrenalin) of adrenalin were observed on the electrocardioagram of the conscious dog.
During a first phase (control) of the experiment, three successive injections of adrenalin were given and, in the 2 minutes following each injection, the frequency of the ventricular extrasystoles was measured. In this manner, by increasing the dose of adrenalin as necessary, it was possible to determine the dose which caused the appearance of ventricular extrasystoles at a higher frequency than or equal to half the total number of ventricular systoles.
After injection of the derivative to be tested, the same dose of adrenalin was reinjected after 5 minutes, then 30 minutes, 60 minutes, 90 minutes, etc., and its effects were compared to those observed during the control period.
The results therein are expressed as a percentage of extrasystoles (on the total number of systoles) measured during the 2 minutes following the injection of adrenalin before and after the administration of the derivative to be tested.

[2] = system: ventricular arrhythmias and death induced by the aconitine; assay: Aconitine intoxication test in the anesthetized rat; assay type: in vivo; settings: i.v., vs untreated control
Excerpt: as §1
The anesthetized rat was intoxicated with an intravenous perfusion of aconitine while its electrocardiogram (ECG) was permanently recorded. During the perfusion at constant rate, the time necessary for the appearance of ventricular arrhythmias, successive extrasystoles (ESV), then stable ventricular tachycardium (TV) and the time within which the animal died were measured.
The animals were divided into a control group (untreated) and treated groups (different doses). The results are expressed as a percentage of prolonging the time of appearance of the arrhythmias and of death of the treated groups in reaction to the control group.
The results obtained are shown in Table 4 below and express the percentage of prolongation of the time of appearance of ventricular arrhythmias (ventricular extrasystoles and ventricular tachycardiums), and of the death, induced by the aconitine after an intravenous injection (I.V.) of several derivatives of the invention, in relation to a group of untreated control animals.

[3] = Lawson test (cardiac antifibrillatory power, chloroform); settings: in vivo, ip; mouse, intraperitoneal; read-out: Maximum Dose Tolerated
[4] = system: anesthetized dog; assay: Hemodynamic (cardiovascular) tolerance in the anesthetized dog; assay type: in vivo; settings: i.v.; for Cardiac Flow, percentage of variation / Cardiac Frequency, percentage of variation / Systolic Arterial Pressure, percentage of variation / Total Peripheral Resistances, percentage of variation / dp/dt/p Left Ventricular, percentage of variation: vs control period
Procedure: The hemodynamic tolerance of the derivatives of the invention was studied on dogs anesthesized with sodium pentobarbital. Endocavitary pressures were measured by means of catheters connected to Statham sensors while external recording of the electrocardiogram (E.C.G.) provided the measurement of cardiac frequency. Cardiac flow was measured by means of an electromagnetic sensor placed on the beginning of the aorta. The total peripheral resistances R were calculated from the value of the average aortic pressure (P) and the cardiac flow (Q) in accordance with the formula R=P/Q.
After measurement of the parameters during a control period, the derivatives were injected intravenously in cumulative doses (30 minute interval between doses). The variations of the parameters in relation to the control period were measured within 20 and 30 minutes after each injection and are expressed as a percentage of variation in relation to the control.
Table 2 summarizes the variations in hemodynamic parameters observed between the first and last injections.

[5] = Acute toxicity in the mouse (LD 50, Litchfield and Wilcoxon); settings: in vivo
Procedure: The acute toxicity of the derivatives of the invention were studied by intraperitoneal administration (I.P.) on the mouse (10 animals, 5 males and 5 females per dose) and calculation of the lethal dose 50 (LD 50) in accordance with the method of Litchfield and Wilcoxon (J. Pharmacol. 96, 99-113 (1949)).
In certain cases (derivatives of Examples 4, 6, 9), the LD 50 was also calculated after oral administration (P.O.) of the derivatives.

[6] = system: anoxic ventricular fibrillation; assay: Lawson test (cardiac antifibrillatory power, chloroform); assay type: in vivo; settings: ip; mouse, intraperitoneal, 10 minutes before chloroform
Procedure: The Lawson test is a test for the study of the cardiac antifibrillatory power of the derivatives. The mice (20 per group) received an intraperitoneal injection of the derivative 10 minutes before being placed in a chloroform-saturated atmosphere. Upon respiratory arrest, the thorax was opened (5 to 10 seconds) and whether or not the heart was in ventricular fibrillation was checked. The efficacy dose 50 (ED 50) of the derivative being studied is the dose which protects half the mice against anoxic ventricular fibrillation.

[7] = system: anesthetized dog; assay: Electrophysiological studies on the anesthetized dog; assay type: in vivo; settings: i.v.
Procedure: This study was carried out on dogs anesthetized with pentobarbital, with a closed thorax, by means of bipolar catheter-electrodes introduced into the cardiac cavities by transcutaneous venous and arterial means. The surface electrocardiogram (standard derivation D2) is recorded permanently.
By means of a programmable JANSEN (R) stimulator, the following parameters may be measured:
spontaneous cardiac frequency (FC);
sinus recuperation time (SRTc) after auricular stimulation imposed at 160 b/mn for 1 mn;
intracardiac conduction times (auriculohisien at a constant frequency, His-Purkinje, intraventricular);
the effective and functional refractory periods measured at an imposed constant frequency, with the extrastimulus method.
During the electrophysiological study, the derivatives were injected intravenously for 2 minutes for each dose and at 30 minute intervals between each dose. The doses are expressed as a cumulative value and as a base term.
The measurement of the various parameters was carried out before the injection of the first dose (control period) and from 10 to 28 minutes after the injection of each dose of the substance. The results are expressed as a percentage of variation in relation to the control period.

[8] = 4 mg/kg, control period 71% of ESV
[9] = cumulative doses 0.3 to 10 mg/kg
[10] = ip, intraperitoneal, read-out: LD 50 I.P.
[11] = 10 mg/kg, control period 40% of ESV
[12] = 4.3 mg/kg, control period 94% of ESV
[13] = doses 0.5 to 5 mg/kg, 3 evaluations
[14] = cumulative doses 0.1 to 3 mg/kg
[15] = 1.3 mg/kg, control period 85% of ESV
[16] = doses 0.1 to 1.4 mg/kg, 1 evaluation
[17] = cumulative doses 0.1 to 1 mg/kg

COc1ccc(C(=O)NC2(C)C3CC4CC2CN(C3)C4(C)C)cc1 (stereo not shown) [Example 8, N-(p-methoxybenzoyl)-4-amino 4,8,8-trimethyl-1-azaadamantane]
ESV Percentage at 5 min [1, 8]: 35% | ESV Percentage at 30 min [1, 8]: 36% | ESV Percentage at 60 min [1, 8]: 53% | Prolongation of time of appearance of ventricular extrasystoles (ESV) ([2]; 5 mg/kg): +45% | Prolongation of time of appearance of ventricular tachycardium (TV) ([2]; 5 mg/kg): +43% | Prolongation of time to death ([2]; 5 mg/kg): +46% | Prolongation of time of appearance of ventricular extrasystoles (ESV) ([2]; 10 mg/kg): +71% | Prolongation of time of appearance of ventricular tachycardium (TV) ([2]; 10 mg/kg): +84% | Prolongation of time to death ([2]; 10 mg/kg): +215% | Prolongation of time of appearance of ventricular extrasystoles (ESV) ([2]; 20 mg/kg): +98% | Prolongation of time of appearance of ventricular tachycardium (TV) ([2]; 20 mg/kg): +107% | Prolongation of time to death ([2]; 20 mg/kg): +112% | MTD [3]: 100 mg/kg | Cardiac frequency, maximum variation ([4]; anesthetized dog): -15% | Cardiac Flow, percentage of variation [4, 9]: -7 to -22% | Cardiac Frequency, percentage of variation [4, 9]: -7 to -15% | Systolic Arterial Pressure, percentage of variation [4, 9]: -6 to -21% | Total Peripheral Resistances, percentage of variation [4, 9]: 0% | dp/dt/p Left Ventricular, percentage of variation [4, 9]: 0 to -28% | LD50 [5, 10]: 250 mg/kg | ED50 [6]: 49 mg/kg

COc1ccc(CCC(=O)NC2(C)C3CC4CC2CN(C3)C4(C)C)cc1 (stereo not shown) [Example 5, N-[3-(p-methoxy-phenyl)propionyl]-4-amino-4,8,8-trimethyl-1-azaadamantane]
ESV Percentage at 5 min [1, 11]: 9% | ESV Percentage at 30 min [1, 11]: 14% | ESV Percentage at 60 min [1, 11]: 16% | Prolongation of time of appearance of ventricular extrasystoles (ESV) ([2]; 5 mg/kg): +41% | Prolongation of time of appearance of ventricular tachycardium (TV) ([2]; 5 mg/kg): +20% | Prolongation of time to death ([2]; 5 mg/kg): +21% | Prolongation of time of appearance of ventricular extrasystoles (ESV) ([2]; 10 mg/kg): +51% | Prolongation of time of appearance of ventricular tachycardium (TV) ([2]; 10 mg/kg): +48% | Prolongation of time to death ([2]; 10 mg/kg): +36% | Prolongation of time of appearance of ventricular extrasystoles (ESV) ([2]; 20 mg/kg): +65% | Prolongation of time of appearance of ventricular tachycardium (TV) ([2]; 20 mg/kg): +54% | Prolongation of time to death ([2]; 20 mg/kg): +50% | MTD [3]: 200 mg/kg | Cardiac frequency, in words ([4]; anesthetized dog): the frequency does not change | Cardiac Flow, percentage of variation ([4]; cumulative doses 1 to 10 mg/kg): +4 to -8% | Cardiac Frequency, percentage of variation ([4]; cumulative doses 1 to 10 mg/kg): 0% | Systolic Arterial Pressure, percentage of variation ([4]; cumulative doses 1 to 10 mg/kg): 0 to +3% | Total Peripheral Resistances, percentage of variation ([4]; cumulative doses 1 to 10 mg/kg): -6 to +11% | dp/dt/p Left Ventricular, percentage of variation ([4]; cumulative doses 1 to 10 mg/kg): +2 to -15% | LD50 [5, 10]: 250 mg/kg | ED50 [6]: 61 mg/kg

CC1(NC(=O)c2ccc(N)cc2)C2CC3CC1CN(C2)C3(C)C (stereo not shown) [Example 3, N-(p-aminobenzoyl)-4-amino-4,8,8-trimethyl-1-azaadamantane]
ESV Percentage at 5 min [1, 12]: 63% | ESV Percentage at 30 min [1, 12]: 77% | ESV Percentage at 60 min [1, 12]: 90% | F.C. (cardiac frequency), variation [7, 13]: 0 to -24% | HV (time of His-Purkinje conduction), variation [7, 13]: +13 to +98% | PREA (effective auricular refractory period), variation [7, 13]: +2 to +50% | PREV (effective ventricular refractory period), variation [7, 13]: 0 to +20% | QRS (time of intraventricular conduction), variation [7, 13]: +8 to +39% | St-H (time of auriculohisien conduction), variation [7, 13]: +2 to +76% | MTD [3]: 50 mg/kg | Cardiac Flow, percentage of variation [4, 14]: +7 to -32% | Cardiac Frequency, percentage of variation [4, 14]: 0 to -14% | Systolic Arterial Pressure, percentage of variation [4, 14]: -3 to -33% | Total Peripheral Resistances, percentage of variation [4, 14]: -10 to +7% | dp/dt/p Left Ventricular, percentage of variation [4, 14]: +14 to -50% | LD50 [5, 10]: 95 mg/kg | ED50 [6]: 37 mg/kg

CC1(NC(=O)c2ccccc2)C2CC3CC1CN(C2)C3(C)C (stereo not shown) [Example 7, 4-N-benzoylamino-4,8,8-trimethyl-1-azaadamantane]
Prolongation of time of appearance of ventricular extrasystoles (ESV) ([2]; 5 mg/kg): +59% | Prolongation of time of appearance of ventricular tachycardium (TV) ([2]; 5 mg/kg): +53% | Prolongation of time to death ([2]; 5 mg/kg): +29% | Prolongation of time of appearance of ventricular extrasystoles (ESV) ([2]; 10 mg/kg): +35% | Prolongation of time of appearance of ventricular tachycardium (TV) ([2]; 10 mg/kg): +35% | Prolongation of time to death ([2]; 10 mg/kg): +45% | Prolongation of time of appearance of ventricular extrasystoles (ESV) ([2]; 20 mg/kg): +111% | Prolongation of time of appearance of ventricular tachycardium (TV) ([2]; 20 mg/kg): +105% | Prolongation of time to death ([2]; 20 mg/kg): +89% | MTD [3]: 150 mg/kg | LD50 [5, 10]: 230 mg/kg | ED50 [6]: 76 mg/kg

CC1(NC(=O)CC(c2ccccc2)c2ccccc2)C2CC3CC1CN(C2)C3(C)C (single isomer, unassigned) [Example 6, N-(3,3-diphenylpropionyl)-4-amino-4,8,8-trimethyl-1-azaadamantane]
ESV Percentage at 5 min [1, 15]: 29% | ESV Percentage at 30 min [1, 15]: 17% | ESV Percentage at 60 min [1, 15]: 17% | Prolongation of time of appearance of ventricular extrasystoles (ESV) ([2]; 1 mg/kg): +52% | Prolongation of time of appearance of ventricular tachycardium (TV) ([2]; 1 mg/kg): +93% | Prolongation of time to death ([2]; 1 mg/kg): +69% | Prolongation of time of appearance of ventricular extrasystoles (ESV) ([2]; 2 mg/kg): +67% | Prolongation of time of appearance of ventricular tachycardium (TV) ([2]; 2 mg/kg): +139% | Prolongation of time to death ([2]; 2 mg/kg): +97% | F.C. (cardiac frequency), variation [7, 16]: 0 to +32% | HV (time of His-Purkinje conduction), variation [7, 16]: 0 to +92% | PREA (effective auricular refractory period), variation [7, 16]: +18 to +50% | PREV (effective ventricular refractory period), variation [7, 16]: +10 to +20% | QRS (time of intraventricular conduction), variation [7, 16]: 0 to +50% | St-H (time of auriculohisien conduction), variation [7, 16]: 0 to +25% | Cardiac frequency, maximum variation ([4]; anesthetized dog): +10% | Cardiac Flow, percentage of variation [4, 17]: -3 to -18% | Cardiac Frequency, percentage of variation [4, 17]: -3 to +10% | Systolic Arterial Pressure, percentage of variation [4, 17]: -8 to -16% | Total Peripheral Resistances, percentage of variation [4, 17]: 0% | dp/dt/p Left Ventricular, percentage of variation [4, 17]: -6 to -13% | LD50 [5, 10]: 51 mg/kg | LD50 ([5]; oral, read-out: LD 50 P.O.): 380 mg/kg
